Measurements as given in paper PMC8119466, “A screen of FDA-approved drugs identifies inhibitors of protein tyrosine phosphatase 4A3 (PTP4A3 or PRL-3)” (Scientific Reports, 2021).
Where two headings read alike, the source gives them in different places. Residues, ends and D or L forms follow the SMILES beside them.

Assays:
Type in all cases: biochemical
recombinant PRL-1 = target: T1, recombinant PRL-1 (Homo sapiens, UniProt Q93096); assay: In vitro phosphatase assay (DiFMUP hydrolysis), PRL-1; further: test concentration or dose not given here
T1 construct: 6xHis (N, cleaved yes); made in house; host or cells: E. coli One Shot BL21 Star
T1 sequence (Q93096 1-173): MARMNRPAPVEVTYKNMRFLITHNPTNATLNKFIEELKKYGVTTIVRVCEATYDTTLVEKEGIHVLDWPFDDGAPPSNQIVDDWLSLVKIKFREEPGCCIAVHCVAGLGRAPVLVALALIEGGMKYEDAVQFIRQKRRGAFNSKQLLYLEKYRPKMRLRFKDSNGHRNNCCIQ

recombinant PRL-2 = target: T2, recombinant PRL-2 (Homo sapiens, UniProt Q12974); assay: In vitro phosphatase assay (DiFMUP hydrolysis), PRL-2;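 further: PRL-2 activity read as DiFMUP hydrolysis after 20 min at room temperature with drug, enzyme first pre-reduced at 4 °C for 20 min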
T2 construct: 6xHis (N, cleaved yes); made in house; host or cells: E. coli One Shot BL21 Star
T2 sequence (Q12974 1-167): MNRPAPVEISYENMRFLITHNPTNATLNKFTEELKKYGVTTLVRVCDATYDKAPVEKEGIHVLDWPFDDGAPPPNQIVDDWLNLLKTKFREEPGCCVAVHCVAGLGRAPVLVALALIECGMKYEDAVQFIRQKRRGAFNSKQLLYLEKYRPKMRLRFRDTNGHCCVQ

recombinant PRL-3 = target: T3, recombinant PRL-3 (Homo sapiens, UniProt O75365); assay: In vitro phosphatase assay (DiFMUP hydrolysis), PRL-3; further: test concentration or dose not given here
T3 construct: 6xHis (N, cleaved yes); made in house; host or cells: E. coli One Shot BL21 Star

[1] = FDA-approved drug screen, compared to DMSO
[2] = FDA-approved drug screen, activity compared to DMSO

T3 sequence (O75365 whole entry): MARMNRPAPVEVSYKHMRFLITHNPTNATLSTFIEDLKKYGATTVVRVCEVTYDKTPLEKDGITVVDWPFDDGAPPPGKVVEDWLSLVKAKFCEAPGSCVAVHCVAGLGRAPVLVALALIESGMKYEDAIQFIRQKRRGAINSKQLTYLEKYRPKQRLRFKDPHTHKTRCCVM

Row | SMILES | % Phosphatase Activity (compared to DMSO) PRL-1 (recombinant PRL-1; [1]) [%] | % Phosphatase Activity (compared to DMSO) PRL-2 (recombinant PRL-2; [1]) [%] | % Phosphatase Activity (compared to DMSO) PRL-3 (recombinant PRL-3; [1]) [%] | further results
1 | C#C[C@]1(O)CC[C@H]2[C@@H]3CCC4=CC(=O)CC[C@@H]4[C@H]3CC[C@@]21CC [Levonorgestrel] | 94 | 101 | 78 | –
2 | CC(=O)NC(CC(C)C)C(=O)O (stereo not drawn) [Acetylleucine] | 110 | 99 | 89 | –
3 | COc1cnc(NS(=O)(=O)c2ccc(N)cc2)nc1 [Sulfameter] | – | – | – | % Phosphatase Activity (compared to DMSO) PRL-1 (recombinant PRL-1; [2]): 106%; % Phosphatase Activity (compared to DMSO) PRL-2 (recombinant PRL-2; [2]): 109%; % Phosphatase Activity (compared to DMSO) PRL-3 (recombinant PRL-3; [2]): 91%
4 | COC(=O)[C@H](Cc1ccccc1)NC(=O)[C@@H](N)CC(=O)O [Aspartame] (H-Asp-Phe-OMe) | 92 | 95 | 85 | –
5 | CC(C)(C)c1cc(NC(=O)Nc2ccc(-c3cn4c(n3)sc3cc(OCCN5CCOCC5)ccc34)cc2)no1 [Quizartinib (AC220)] | 112 | 114 | 97 | –
6 | C[C@]12CC[C@@H]3c4ccc(O)cc4CC[C@H]3[C@@H]1CC[C@@H]2O [Estradiol] | 92 | 113 | 84 | –
7 | NC(=O)Cc1cccc(C(=O)c2ccccc2)c1N [Nepafenac] | 96 | 93 | 72 | –
8 | CC(C)/N=c1\cc2n(-c3ccc(Cl)cc3)c3ccccc3nc-2cc1Nc1ccc(Cl)cc1 [Clofazimine] | 78 | 96 | 69 | –
9 | CCOC(=O)c1ccc(N)cc1 [Benzocaine] | 87 | 98 | 84 | –
10 | CC(=O)Oc1cc(C(F)(F)F)ccc1C(=O)O [Triflusal] | – | – | – | % Phosphatase Activity (compared to DMSO) PRL-1 (recombinant PRL-1; [2]): 108%; % Phosphatase Activity (compared to DMSO) PRL-2 (recombinant PRL-2; [2]): 105%; % Phosphatase Activity (compared to DMSO) PRL-3 (recombinant PRL-3; [2]): 78%
11 | CCCc1nc(C)c2c(=O)[nH]c(-c3cc(S(=O)(=O)N4CCN(CC)CC4)ccc3OCC)nn12.Cl.O.O.O [Vardenafil HCl Trihydrate] | – | – | – | % Phosphatase Activity (compared to DMSO) PRL-1 (recombinant PRL-1; [2]): 98%; % Phosphatase Activity (compared to DMSO) PRL-2 (recombinant PRL-2; [2]): 98%; % Phosphatase Activity (compared to DMSO) PRL-3 (recombinant PRL-3; [2]): 84%
12 | CCOC(=O)C1=C(C)NC(C)=C(C(=O)OCC)C1c1ccccc1/C=C/C(=O)OC(C)(C)C [Lacidipine] | 232 | 329 | 172 | –
13 | CC(=O)NC1CCSC1=O (stereo not drawn) [Citiolone] | 114 | 106 | 93 | –
14 | FC(F)(F)c1ccc(CNc2ccc(Cc3c[nH]c4ncc(Cl)cc34)cn2)cn1 [Pexidartinib (PLX3397)] | 102 | 100 | 101 | –
15 | CCc1cnn2c(NCc3ccc[n+]([O-])c3)cc(N3CCCC[C@H]3CCO)nc12 [Dinaciclib (SCH727965)] | – | – | – | % Phosphatase Activity (compared to DMSO) PRL-1 (recombinant PRL-1): 87%; % Phosphatase Activity (compared to DMSO) PRL-2 (recombinant PRL-2): 89%; % Phosphatase Activity (compared to DMSO) PRL-3 (recombinant PRL-3): 87%
16 | C[C@@H](CN1CC(=O)NC(=O)C1)N1CC(=O)NC(=O)C1.Cl [Dexrazoxane HCl (ICRF-187, ADR-529)] | 97 | 92 | 79 | –
